Experimental data reported in ChEMBL document CHEMBL6134893, “The Exploration of Indole-Based LSD1-Targeted Inhibitors for Enhanced Immune Response in Gastric Cancer via the PD-L1/PD-1 Axis” (J Med Chem, 2025).
pIC50: −log10 of the molar value.

Target: T1, Lysine-specific histone demethylase 1A (Homo sapiens, UniProt O60341)
Assay: Inhibition of LSD1 in human MKN-45 cells assessed as accumulation of membrane PD-L1 at 2 uM incubated for 5 days
Format: cell-based
Design: scale not given: the % may be the effect or the level left
Settings: time 5.0 day

`N[C@H]1CC[C@H](N[C@@H]2C[C@H]2c2ccccc2)CC1` gave an Activity of 48.5%.

Target: Lysine-specific histone demethylase 1A (Mus musculus) (UniProt Q6ZQ88)
Assay: Inhibition of LSD1 in mouse MFC cells assessed as accumulation of membrane PD-L1 at 2 uM incubated for 5 days
Format: cell-based
Design: scale not given: the % may be the effect or the level left
Settings: time 5.0 day

`N[C@H]1CC[C@H](N[C@@H]2C[C@H]2c2ccccc2)CC1` showed an Activity of 40.4%.

Target: T1, Lysine-specific histone demethylase 1A
Assay: Inhibition of recombinant LSD1 (unknown origin) extracted from Escherichia coli BL21 (DE3) using H3K4me2 peptide as substrate in presence of […] by Amplex Red assay
Settings: not given

First: C=C1C(=O)OCC1C(O)c1cn(S(=O)(=O)c2ccccc2[N+](=O)[O-])c2ccc(Cl)cc12 (configuration not stated)
Second: C=C1C(=O)OCC1C(O)c1cn(S(=O)(=O)c2ccccc2F)c2ccc(Cl)cc12 (configuration not stated)
The pIC50 of the first is 0.54 log units lower: 6.12 for the first, 6.66 for the second. The second is the more potent here.

`C=C1C(=O)OCC1C(O)c1cn(S(=O)(=O)c2ccc(OC)cc2)c2ccc(Cl)cc12` (configuration not stated) and `C=C1C(=O)OCC1C(O)c1cn(S(=O)(=O)c2ccc(Br)cc2)c2ccc(Cl)cc12` (configuration not stated) are within 0.2 log units of each other in pIC50: 6.07 for the first, 5.94 for the second.

`C=C1C(=O)OCC1C(O)c1cn(S(=O)(=O)c2ccc(Cl)cc2)c2ccc(Cl)cc12` (configuration not stated) and `C=C1C(=O)OCC1C(O)c1cn(S(=O)(=O)c2ccc(F)cc2)c2ccc(Cl)cc12` (configuration not stated) are within 0.2 log units of each other in pIC50: 6.03 for the first, 5.87 for the second.

First: C=C1C(=O)OCC1C(O)c1cn(S(=O)(=O)c2cccc(Cl)c2)c2ccc(Cl)cc12 (configuration not stated)
Second: C=C1C(=O)OCC1C(O)c1cn(S(=O)(=O)c2cccc([N+](=O)[O-])c2)c2ccc(Cl)cc12 (configuration not stated)
The pIC50 of the first is 0.84 log units lower: 6.13 for the first, 6.97 for the second.

`C=C1C(=O)OCC1C(O)c1cn(S(=O)(=O)c2ccc(CBr)cc2)c2ccc(Cl)cc12` (configuration not stated) and `C=C1C(=O)OCC1C(O)c1cn(S(=O)(=O)c2ccc([N+](=O)[O-])cc2)c2ccc(Cl)cc12` (configuration not stated) are within 0.2 log units of each other in pIC50: 6.03 for the first, 5.86 for the second.

First: C=C1C(=O)OCC1C(O)c1cn(S(=O)(=O)c2ccccc2Cl)c2ccc(Cl)cc12 (configuration not stated)
Second: C=C1C(=O)OCC1C(O)c1cn(S(=O)(=O)c2ccccc2Br)c2ccc(Cl)cc12 (configuration not stated)
The pIC50 of the first is 0.35 log units lower: 6.44 for the first, 6.79 for the second.

Going from `C=C1C(=O)OCC1C(O)c1cn(S(=O)(=O)c2ccc(Cl)c(N)c2)c2ccc(Cl)cc12` (configuration not stated) to `C=C1C(=O)OCC1C(O)c1cn(S(=O)(=O)c2ccc(Cl)c(Cl)c2)c2ccc(Cl)cc12` (configuration not stated), the pIC50 rises from under 5.30 to 6.24. The second is the more potent here.

`C=C1C(=O)OC/C1=C\c1cn(S(=O)(=O)c2ccc(Cl)cc2)c2ccc(Cl)cc12` and `C=C1C(=O)OCC1C(=O)c1cn(S(=O)(=O)c2ccc(Cl)cc2)c2ccc(Cl)cc12` (configuration not stated) cannot be ordered by pIC50: under 5.00 for the first, under 5.00 for the second.

`C=C1C(=O)OCC1C(O)c1cn(S(=O)(=O)c2ccc(N3CCCCC3)c([N+](=O)[O-])c2)c2ccc(Cl)cc12` (configuration not stated) and `C=C1C(=O)OCC1C(O)c1cn(S(=O)(=O)c2ccc(N3CCCC3)c([N+](=O)[O-])c2)c2ccc(Cl)cc12` (configuration not stated) are within 0.2 log units of each other in pIC50: 5.67 for the first, 5.61 for the second.

Going from `C=C1C(=O)OCC1C(O)c1cn(S(=O)(=O)c2ccc(Cl)cc2Cl)c2ccc(Cl)cc12` (configuration not stated) to `C=C1C(=O)OCC1C(O)c1cn(S(=O)(=O)c2c(Cl)cccc2Cl)c2ccc(Cl)cc12` (configuration not stated), the pIC50 falls from 6.44 to 6.01 (0.43 log units). The first is the more potent here.

First: C=C1C(=O)OCC1C(O)c1cn(S(=O)(=O)c2ccc(N3CCCC(NC(=O)OC(C)(C)C)C3)c([N+](=O)[O-])c2)c2ccc(Cl)cc12 (configuration not stated)
Second: C=C1C(=O)OCC1C(O)c1cn(S(=O)(=O)c2ccc(N3CCC(NC(=O)OC(C)(C)C)C3)c([N+](=O)[O-])c2)c2ccc(Cl)cc12 (configuration not stated)
The pIC50 of the first is 0.21 log units lower: 6.15 for the first, 6.36 for the second.

`C=C1C(=O)OCC1C(O)c1cn(S(=O)(=O)c2ccc(C(F)(F)F)cc2)c2ccc(Cl)cc12` (configuration not stated) and `C=C1C(=O)OCC1C(O)c1cn(S(=O)(=O)c2ccc(OC(F)(F)F)cc2)c2ccc(Cl)cc12` (configuration not stated) are within 0.2 log units of each other in pIC50: 5.84 for the first, 5.85 for the second.

First: C=C1C(=O)OCC1C(O)c1cn(S(=O)(=O)c2ccc(NC)c([N+](=O)[O-])c2)c2ccc(Cl)cc12 (configuration not stated)
Second: C=C1C(=O)OCC1C(O)c1cn(S(=O)(=O)c2ccc(NCCC)c([N+](=O)[O-])c2)c2ccc(Cl)cc12 (configuration not stated)
The pIC50 of the first is 0.87 log units higher: 7.05 for the first, 6.18 for the second. The first is the more potent here.

First: C=C1C(=O)OCC1C(O)c1cn(S(=O)(=O)c2ccc(N3CCCN(C(=O)OC(C)(C)C)CC3)c([N+](=O)[O-])c2)c2ccc(Cl)cc12 (configuration not stated)
Second: C=C1C(=O)OCC1C(O)c1cn(S(=O)(=O)c2ccc(N3CCN(C(=O)OC(C)(C)C)CC3)c([N+](=O)[O-])c2)c2ccc(Cl)cc12 (configuration not stated)
The pIC50 of the first is 1.04 log units lower: 5.30 for the first, 6.34 for the second.

Going from `C=C1C(=O)OCC1C(O)c1cn(S(=O)(=O)C2CC2)c2ccc(Cl)cc12` (configuration not stated) to `C=C1C(=O)OCC1C(O)c1cn(S(C)(=O)=O)c2ccc(Cl)cc12` (configuration not stated), the pIC50 falls from 5.25 to 5.04 (0.21 log units).

`O=S(=O)(c1ccc(Cl)cc1)n1cc(CNCC2CC2)c2cc(Cl)ccc21` and `O=S(=O)(c1ccc(Cl)cc1)n1cc(CNC2CC2)c2cc(Cl)ccc21` cannot be ordered by pIC50: under 5.00 for the first, under 5.00 for the second.

Compared with `C=C1C(=O)OCC1C(O)c1cn(S(=O)(=O)c2ccc(F)c(C(F)(F)F)c2)c2ccc(Cl)cc12` (configuration not stated), `C=C1C(=O)OCC1C(O)c1cn(S(=O)(=O)c2cccc(C(F)(F)F)c2)c2ccc(Cl)cc12` (configuration not stated) is 0.49 log units higher in pIC50: 6.18 for the first, 6.67 for the second. The second is the more potent here.

Going from `C=C1C(=O)OCC1C(O)c1cn(S(=O)(=O)c2ccc(CNCc3ccc(Cl)cc3)cc2)c2ccc(Cl)cc12` (configuration not stated) to `C=C1C(=O)OCC1C(O)c1cn(S(=O)(=O)c2ccc(CN3CCOCC3)cc2)c2ccc(Cl)cc12` (configuration not stated), the pIC50 rises from 5.63 to 6.22 (0.59 log units).

`C=C1C(=O)OCC1C(O)c1ccn(S(=O)(=O)c2ccc(C)cc2)c1` (configuration not stated) and `C=C1C(=O)OCC1C(O)c1ccn(S(=O)(=O)c2ccc(Cl)cc2)c1` (configuration not stated) cannot be ordered by pIC50: under 5.00 for the first, under 5.00 for the second.

Compared with `C=C1C(=O)OCC1C(O)c1cn(S(=O)(=O)c2ccc(N3CCN(C)CC3)c([N+](=O)[O-])c2)c2ccc(Cl)cc12` (configuration not stated), `C=C1C(=O)OCC1C(O)c1cn(S(=O)(=O)c2ccc(N3CCN(CC)CC3)c([N+](=O)[O-])c2)c2ccc(Cl)cc12` (configuration not stated) is 0.21 log units higher in pIC50: 6.33 for the first, 6.54 for the second. The second is the more potent here.

`C=C1C(=O)OCC1C(O)c1cn(S(=O)(=O)c2ccc(Cl)c([N+](=O)[O-])c2)c2ccc(Cl)cc12` (configuration not stated) and `C=C1C(=O)OCC1C(O)c1cn(S(=O)(=O)c2ccc(NCC(C)C)c([N+](=O)[O-])c2)c2ccc(Cl)cc12` (configuration not stated) are within 0.2 log units of each other in pIC50: 7.00 for the first, 6.88 for the second.

First: C=C1C(=O)OCC1C(O)c1cn(S(=O)(=O)c2ccccc2)c2ccc(Cl)cc12 (configuration not stated)
Second: C=C1C(=O)OCC1C(O)c1cn(S(=O)(=O)c2ccccc2C)c2ccc(Cl)cc12 (configuration not stated)
The pIC50 of the first is 0.63 log units lower: 5.95 for the first, 6.58 for the second. The second is the more potent here.

Compared with `C=C1C(=O)OCC1C(O)c1cn(S(=O)(=O)c2ccc(CN3CCN(C(=O)OC(C)(C)C)CC3)cc2)c2ccc(Cl)cc12` (configuration not stated), `C=C1C(=O)OCC1C(O)c1cn(S(=O)(=O)c2ccc(N3CCN(CCO)CC3)c([N+](=O)[O-])c2)c2ccc(Cl)cc12` (configuration not stated) is 0.62 log units higher in pIC50: 5.93 for the first, 6.55 for the second. The second is the more potent here.

Compared with `C=C1C(=O)OCC1C(O)c1ccn(S(=O)(=O)c2ccc(Br)cc2)c1` (configuration not stated), `C=C1C(=O)OCC1C(O)c1cn(S(=O)(=O)CCC)c2ccc(Cl)cc12` (configuration not stated) is higher in pIC50: under 5.00 for the first, 5.18 for the second. The second is the more potent here.

`C=C1C(=O)OCC1C(O)c1cn(S(=O)(=O)c2ccc(N3C[C@@H]4C[C@H]3CN4C(=O)OC(C)(C)C)c([N+](=O)[O-])c2)c2ccc(Cl)cc12` (some centres not stated) and `C=C1C(=O)OCC1C(O)c1cn(S(=O)(=O)c2ccc(N(CCC)CCC)c([N+](=O)[O-])c2)c2ccc(Cl)cc12` (configuration not stated) are within 0.2 log units of each other in pIC50: 5.48 for the first, 5.47 for the second.
